Our source for the Activity and IC50 values is ChEMBL document CHEMBL1149208, “Synthesis of 1alpha,25-dihydroxyvitamin D3-26,23-lactams (DLAMs), a novel series of 1 alpha,25-dihydroxyvitamin D3 antagonist” (Bioorg Med Chem Lett, 2004).

Where only a bound is given, the exact number is not on record here.

Experiment [1] relates to HL-60. Briefly: Inhibitory activity on HL-60 cell differentiation induced by 10e-8 M of compound 1 (1,25-D3). Also noted: scale not given: the % may be the effect or the level left.
The target of experiment [2] is T1, Vitamin D3 receptor (Gallus gallus, UniProt O42392).
T1 sequence (O42392 whole entry): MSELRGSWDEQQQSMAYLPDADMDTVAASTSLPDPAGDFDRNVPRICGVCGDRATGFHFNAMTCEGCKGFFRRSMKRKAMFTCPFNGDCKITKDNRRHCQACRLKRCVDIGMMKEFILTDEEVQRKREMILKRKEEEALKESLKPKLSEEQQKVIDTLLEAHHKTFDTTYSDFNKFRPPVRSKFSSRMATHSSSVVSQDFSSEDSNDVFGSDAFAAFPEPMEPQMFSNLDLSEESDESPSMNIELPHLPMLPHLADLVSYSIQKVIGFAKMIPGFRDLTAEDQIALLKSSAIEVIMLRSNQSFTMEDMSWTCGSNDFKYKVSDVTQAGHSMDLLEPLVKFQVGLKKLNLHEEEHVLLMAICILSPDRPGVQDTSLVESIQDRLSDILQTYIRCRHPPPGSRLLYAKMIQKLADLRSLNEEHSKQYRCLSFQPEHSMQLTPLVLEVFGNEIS
Briefly: In vitro relative binding affinity for chick intestinal vitamin D3 receptor compared to [3H]1.

For `C=C1/C(=C/C=C2/CCC[C@@]3(C)C2CCC3[C@H](C)C[C@H]2C[C@](C)(O)C(=O)N2Cc2ccccc2)C[C@@H](O)C[C@@H]1O` (stereo partly drawn), the Activity in experiment [1] came to 47%. In addition, in experiment [2], the IC50 (in general, the point on the concentration scale where inhibition reaches its midpoint) was 1.9 nM.

With `C=C1/C(=C/C=C2/CCC[C@]3(C)[C@@H]([C@H](C)C[C@@H]4C[C@](C)(O)C(=O)N4C)CC[C@@H]23)C[C@@H](O)C[C@@H]1O` (stereo in doubt; form 2), the IC50 in experiment [2] is over 100 nM. Same read-out and setting: with `C=C1/C(=C/C=C2/CCC[C@]3(C)[C@@H]([C@H](C)C[C@@H]4C[C@@](C)(O)C(=O)N4C)CC[C@@H]23)C[C@@H](O)C[C@@H]1O` the figure was 50 nM; with `C=C1/C(=C/C=C2/CCC[C@]3(C)[C@@H]([C@H](C)C[C@@H]4C[C@](C)(O)C(=O)N4C)CC[C@@H]23)C[C@@H](O)C[C@@H]1O` (stereo in doubt; form 1), over 100 nM. In the case of `C=C1/C(=C/C=C2/CCC[C@@]3(C)C2CCC3[C@H](C)C[C@H]2C[C@](C)(O)C(=O)N2C)C[C@@H](O)C[C@@H]1O` (stereo partly drawn), the Activity in experiment [1] was 12%. The concentration for half-maximal inhibition (IC50) in experiment [2] came to 10.2 nM.

In experiment [2], `C=C1/C(=C/C=C2/CCC[C@@]3(C)C2CCC3[C@H](C)C[C@@H]2C[C@@](C)(O)C(=O)N2Cc2ccccc2)C[C@@H](O)C[C@@H]1O` (stereo partly drawn) showed a 50% inhibitory concentration (IC50) of 30 nM.
